Test system: Varroa destructor
Experiment: 1st test in hives: degree of infestation with Varroa
Type: in vivo
Conditions: for Degree of infestation with Varroa / Degree of infestation with Varroa, change versus batch I: overall dose 2 mg per colony; for Degree of infestation with Varroa: 100 = 1.78 mite/10 g of bees; for Degree of infestation with Varroa, change versus batch I: value in brackets
Protocol: Biological field tests were performed on families of European domestic bees of the species Apis mellifera […] experimental apiary located in the […] forestry district (Republic of Moldova). Feeding with the complex of the invention took place in spring. The biological tests were monitored up to the month of September. To administer the compounds to the bees, a very small amount of bioactive substance was added to two types of sugary feeding products for bees: candy in the form of a paste (70% sucrose, 30% honey) or syrup (50% sucrose, 50% water). The bees were fed by adding the candy/syrup to the feeder located in the inner upper part of the hive. The volume of syrup was adjusted based on the number of bee frames at the initial time, more precisely 200 g of candy per frame and 100 mL of syrup per frame, that is 2 kg of candy and 1 L of syrup per hive of 10 frames. For the first feeding step, candy in the form of a paste was only given once. […] From the start of the test to the end (after the second harvest), all the bees were monitored for several key morpho-producing parameters that reflect the development level of the colony and the vital aspects of the bees. The parameters studied are: the prolificity of the queen (fertility), the power of the colonies, the production of honey and the production of wax. These parameters were monitored in line with the zootechnical standards concerning the assessment of bee families, breeding and certification of beekeeping parental material approved by government decision No. 306 dated Apr. 28, 2011 of the Republic of Moldova. The assessment consists in counting the number of Varroa on a sample of adult bees. The value from this count is used as an index for monitoring the level of parasitism in the colony. The method uses icing sugar and a “shaker” jar made of transparent glass with a capacity of 1 kg. The cover is a mesh made of galvanized steel of the type placed at the bottom of the hive, with a mesh size of 3 mm. The mesh allows Varroa mites to pass through but retains the honey bees. The method is implemented according to the following steps: 40 to 50 g of honey bees are collected in the jar (approximately 400 bees), 100 g of icing sugar is added and the shaker jar is rolled for 1 minute so as to cover every bee in icing sugar. The icing sugar then makes it possible to separate the Varroa mites from the body of the host bee so that they drop off. Leave to rest for 1 minute: bees have a delousing behavior, which helps the Varroa mites to drop off. The icing sugar is sieved over a sieve which makes it possible to retain the Varroa mites and then count them. The result is given as the number of mites per 10 g of bees (approximately 100 bees) and can be expressed as a %. This rate is indicative of the Varroa burden in the colony. […] A moderate rate is between 2 and 5 and, in this case, treatment of the colonies must be scheduled. Finally, a rate greater than 5, requires emergency treatment of the colony. Our tests give a result of around 2% for worker bees. The molecules tested, their concentration in solution and their annual overall doses are listed below: • 1. […] The concentration of the complex in the syrup: 1.5×10^-7 mol/L. Overall and annual product dose: 2 mg of complex per colony • 2. […] The concentration of the complex in syrup: 3.0×10^-7 mol/L. Overall and annual product dose: 2 mg of complex per colony • 3. […] Overall and annual product dose: 2 mg of complex per colony • 4. LiCH3COO·H2O as a positive control, abbreviated as Li-Ac • The feeding is carried out with 2000 g of candy containing 0.8 mg of positive control product, then 6 to 7 L of syrup containing 0.2 mg/L of positive control product. The concentration of the product in syrup: 2.36×10^-6 mol/L that is 1.67×10^-5 g/L. Overall and annual product dose: 2 mg of product per colony

Row | Structure (SMILES) | Degree of infestation with Varroa | Degree of infestation with Varroa, change versus batch I | Protective effect against the infestation of bees by Varroa destructor (1st test, 2 mg per colony, relative to untreated batch I, Li complex at a lithium concentration almost 4 times lower than Li—Ac)
1 | CC(=O)[O-].[Li+] [Li—Ac, LiCH3COO·H2O, reference compound] | 58.4 % relative to batch I | −41.6% | –
2 | O.O.O.O.O.O.O=C([O-])CN(CCN(CC(=O)[O-])CC(=O)[O-])CC(=O)[O-].[Li+].[Li+].[O]=[Mo+]12[O][Mo+]1(=[O])[O]2 [Li—Mo2O4-EDTA, Li2[Mo2O4 (EDTA)]·6H2O] | 57.3 % relative to batch I | −42.7% | protective capacity comparable to that of the lithium acetate
3 | O.O.O.O.O.O=C([O-])CN(CCN(CC(=O)[O-])CC(=O)[O-])CC(=O)[O-].[Na+].[Na+].[O]=[Mo+]12[O][Mo+]1(=[O])[O]2 [Na—Mo2O4-EDTA, Na2[Mo2O4 (EDTA)]·5H2O] | 86.5 % relative to batch I | −13.5% | –
4 | O=C([O-])CN(CCN(CC(=O)[O-])CC(=O)[O-])CC(=O)[O-].[O]=[Mo+]12[O][Mo+]1(=[O])[O]2.c1ccc([P+](c2ccccc2)(c2ccccc2)c2ccccc2)cc1.c1ccc([P+](c2ccccc2)(c2ccccc2)c2ccccc2)cc1 [PPh4—Mo2O4-EDTA, (PPh4)2[Mo2O4 (EDTA)]·2.5H2O] | 78.7 % relative to batch I | −21.3% | –
